The text below walks through data of patent US5527811A, “Isoquinolinyl compounds which are useful in treating cerebral vascular disorders” (Takeda Chemical Industries, Ltd., priority 1993, dated 1996).

Experiment [1] deals with cytosolic free Ca^2+ in hippocampal neurons. Nature of the experiment: Effect on cytosolic free Ca^2+ concentration in neurons (L-glutamic acid-induced [Ca^2+]i increase, fura-2). Format: cell-based. Conditions: Rattus norvegicus, Hippocampal neuron, L-Glu.-induced [Ca^2+]i increase. On the procedure:
Effect on cytosolic free Ca^2+ concentration in neurons
Neurons were harvested from hippocampi of 18-day-old rat embryos and cultured based on the method of Hatanaka and Tsukui (Developmental Brain Research, 30, 47-56, 1986). Hippocampal neurons suspended in Dulbecco's modified Eagle's medium were seeded on cover glass slides (10×20 mm, Matunami No. 1, Osaka, Japan) coated with poly-L-lysin at a density of 2.5×10^5 cells/slide and cultured for 7 days in humidified CO2 incubator (95% air/5% CO2) at 37° C. The neurons were washed 3 times with HEPES [N-(2-hydroxyethyl)piperazine-N'-2-ethanesulfonic acid]-buffered physiological salt solution (PSS) (140 mM NaCl, 5 mM KCl, 1 mMMgSO4, 1 mM Na2 HPO4, 1 mM CaCl2, 25 mM glucose, 25 mM HEPES, pH7.4), and then loaded with fura-2 acetoxymethyl ester (4 μM) in HEPES-buffered PSS for 60 min at 37° C. The cover glass slide coated with neurons, which were loaded with fura-2, was inserted into a cuvette that contained 2.5 ml HEPES-buffered PSS supplemented with 0.05% bovine serum albumin. Ca2+ -fura-2 fluorescence was measured with Hitachi F-2000 spectrofluorimeter by 340 nm and 380 nm for excitation and 505 nm for emission. Cytosolic free Ca^2+ concentration ([Ca^2+ ]i) values were calculated according to the method of Grynkiewicz et. al, (Journal of Biological Chemistry, 260, 3440-3450, 1985). Neurons were treated with example-compounds 5 min before the addition of L-glutamic acid (L-Glu.).
L-Glu. leads to two phases-increase of [Ca^2+ ]i in neurons. The first increase of [Ca^2+ ]i is caused by the release from cellular Ca^2+ stores and the influx of extracellular Ca^2+. The second one is caused by the influx of extracellular Ca^2+. The effect of the drug on these two phases-increase of [Ca^2+ ]i was examined and the 50% inhibitory dose (IC50) was calculated.

For experiment [2], the system named is transient cerebral ischemia in mongolian gerbils. Nature of the experiment: Protective effect of cerebralischemia: survival ratio after bilateral common carotid occlusion and reperfusion in gerbils. In kind it is in vivo, mongolian gerbil. Conditions: Meriones unguiculatus; 5 mg/kg, ip; 30 min before occlusion and 90 min after reperfusion; estimated 8 hr after reperfusion; control 0; read-out: Survival ratio. Here is the method:
Test Example 1 Protective effect of cerebralischemia
Male mongolian gerbils (Seiwa/8-10 wks) (n=8-10) were used. Bilateral common carotid arteries were occluded after the incision of the center of the neck under ether anesthesia. Global cerebral ischemia was induced by the occlusion of bilateral common carotid arteries (15 minutes), and after that these arteries were reperfused. Test sample was administered intraperiatonelly 30 minutes before occlusion and 90 minutes after reperfusion. In the control group, vehicle (distilled water, saline or 5% gum arabic) was administered in the same fashion. Survival ratio was estimated at 8 hr after reperfusion (Table 2).

The test system of experiment [3] is brain edema in male wistar rats. Nature of the experiment: Anti-brain edema effect (middle cerebral arterial occlusion and reperfusion model). Format: in vivo, rat (wistar). Conditions: 10 mg/kg(ip) × 7, rat, 3rd day after reperfusion, * p < 0.05. From the text: Test Example 2 Anti-brain edema effect (middle cerebral arterial occlusion and reperfusion model)
Male wistar rats (Jcl:9wks) were anesthetized with inhalation of halothane (2-bromo-2-chloro-1,1,1-trifluoroethane). After the incision of neck, bilateral common carotid arteries were […] an embolized needle (diameter 0.3 mm, length 26 mm nylon thread) was inserted into the left internal carotid artery through external carotid artery and, simultaneously, the bilateral common carotid arteries were occluded by the Sugita's aneurysm clips. The embolized needle and the clips were removed out 30 minutes after occlusion. Test sample was administered immediately and 5 hr after reperfusion on the operated day, twice a day on the 1st and 2nd day, and 1 hr before removing the brain on the 3rd day (total 7 times), intraperiatonelly. In the control group, vehicle (distilled water, saline or 5% gum arabic) was administered in the same fasion. Brain edema on the 3rd day after reperfusion was estimated from the content of water, potassium and sodium in cerebral cortex and striatum. Water content was calculated from the ratio of dried brain weight and wet brain weight [(1-dried weight/wet weight)×100%]. The contents of pottasium and sodium were measured using the solution extracted from dried brain tissue with 14% nitric acid by the method of the framephotometer (Table 3).

Experiment [4] addresses T1, substance P receptor from human lymphoblast cells (IM-9) (Homo sapiens, UniProt P25103).
T1 construct: The receptor was prepared from human lymphoblast cells (IM-9); endogenous in cells; host or cells: IM-9 human lymphoblast cells (washed membrane preparation)
Nature of the experiment: Radioligand receptor binding inhibitory assay using receptor from human lymphoblast cells (IM-9), 125I-BHSP. As to conditions: 25° C., 30 minutes, pH 7.4. Here is the method:
Radioligand receptor binding inhibitory assay using receptor from human lymphoblast cells (IM-9)
The method of "A. Margaret et al. Molecular Pharmacology 42, 458 (1992)" was modified and used. The receptor was prepared from human lymphoblast cells (IM-9). IM-9 cells were grown in 175 cm^2 tissue culture flasks (100 ml z 10) at a density approximately 2×10^5 /ml of RPMI 1640 with L-glutamine, 10% (V/V) heat inactivated fetal calf serum, penicillin (100 u/ml), and streptomycin (100 μg/ml) at 37° C. in 5%CO2 /95% air for 3 days. IM-9 cells were obtained by centrifugation at 500 Xg for 5 minutes at 5° C. The pellet obtained was washed once with phosphate buffer (Flow Laboratories, CAT No. 28-103-05), homogenized using Polytron homogenizer (Kinematika, Germany) in 30 ml of 50 mM Tris-HCl buffer containing 120 mM NaCl, 5 mM KCl, 2 μg/ml phenylmethyl sufonyl fluoride, and 1 mM ethylenediamine tetra-acetic acid and then centrifuged at 40,000 Xg for 20 minutes. The residue was washed twice with 30 ml of buffer described above, and preserved frozen (-80° C.).
The above specimen was suspended in a reaction buffer (50 mM Tris-HCl buffer (pH 7.4), 0.02% bovine serum albumin, 1 mM phenylmethylsufonyl fluoride, 2 μg/ml chymostatin, 40 μg/ml bacitracin, 3 mM manganese chloride) at a protein concentration of 1.5 mg/ml and a 100 μl portion of the suspension was used in the reaction. After addition of the sample and 125I-BHSP (0.46 KBq), the reaction was conducted in 0.2 ml of reaction buffer at 25° C. for 30 minutes. The amount of nonspecific binding was determined by adding substance P at a final concentration of […]. After the reaction, using a cell harvester (290PHD, Cambridge Technology, Inc., England), rapid filtration was carried out through a glass filter (GF/B, Whatman, U.S.A.) to stop the reaction. After washing three times with 250 μl of 50 mM Tris-HCl buffer (pH 7.4) containing 0.02% bovine serum albumin, the radioactivity remaining on the filter was measured with a gamma counter. Before use, the filter was immersed in 0.1% polyethyleneimine for 24 hours and air-dried. […]

Like-named read-outs stand apart in the source and are kept apart here.

T1 sequence (P25103 whole entry): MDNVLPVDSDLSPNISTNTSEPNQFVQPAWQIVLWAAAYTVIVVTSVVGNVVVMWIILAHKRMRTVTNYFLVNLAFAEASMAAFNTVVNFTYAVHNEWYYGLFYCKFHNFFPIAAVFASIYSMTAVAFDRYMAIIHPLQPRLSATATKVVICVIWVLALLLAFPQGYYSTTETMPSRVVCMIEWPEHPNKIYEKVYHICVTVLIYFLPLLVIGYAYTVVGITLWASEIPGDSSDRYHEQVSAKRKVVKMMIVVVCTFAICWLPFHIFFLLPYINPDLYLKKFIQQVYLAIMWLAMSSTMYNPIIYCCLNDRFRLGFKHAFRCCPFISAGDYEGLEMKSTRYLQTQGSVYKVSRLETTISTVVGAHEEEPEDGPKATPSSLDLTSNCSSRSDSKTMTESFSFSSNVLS

`CC(C)Oc1cccc(NC(=O)NCc2c(-c3ccccc3)c3cc(Cl)ccc3c(=O)n2C)c1` [Example 1, N-[(6-Chloro-1,2-dihydro-2-methyl-1-oxo-4-phenylisoquinolin-3-yl)methyl]-N'-(3isopropoxyphenyl)urea]: the half-maximal inhibitory concentration (IC50) (in general, the midpoint of a concentration-inhibition curve) was 69 nM in experiment [1] (with EGTA, 1st phase (release from cellular Ca^2+ stores), read-out: IC50 with EGTA, 1st Phase); 3000 nM in experiment [1] (without EGTA, 1st phase, read-out: IC50 without EGTA, 1st Phase); over 10000 nM in experiment [1] (without EGTA, 2nd phase, read-out: IC50 without EGTA, 2nd Phase). In addition, the responders at 5 mg/kg in experiment [2] is 88%. The “H2O (water content of brain)” value in experiment [3] (control 81.27 (Example 1), 80.94 (Example 15(HCl))) worked out at 80.12 ± 0.32%. Also, the “Na (sodium content of brain)” value in experiment [3] (control 405 (Example 1), 371 (Example 15(HCl))) is recorded as 322 ± 24 mEq/kg. Further, the “K (potassium content of brain)” value in experiment [3] (control 430 (Example 1), 440 (Example 15(HCl))) worked out at 471 ± 13 mEq/kg.

For the compound `Cc1cc2c(-c3ccccc3)c(CN(C)C(=O)c3cc(C(F)(F)F)cc(C(F)(F)F)c3)n(C)c(=O)c2cc1C` [Example 36, 3,5-Bis(trifluoromethyl)-N-[(1,2-dihydro-2,6,7-trimethyl-1-oxo-4-phenylisoquinolin-3-yl)methyl]-N-methylbenzamide], the IC50 in experiment [4] worked out at 47 nM.

Regarding `CN(Cc1c(-c2ccccc2)c2ccccc2c(=O)n1C)C(=O)c1cc(C(F)(F)F)cc(C(F)(F)F)c1` [Example 37, 3,5-Bis(trifluoromethyl)-N-[(1,2-dihydro-2-methyl-1-oxo-4-phenylisoquinolin-3-yl)methyl]-N-methyl benzamide], the concentration for half-maximal inhibition (IC50) in experiment [4] is 1 nM.

Consider `CN(Cc1c(-c2ccccc2)c2cc(Cl)ccc2c(=O)n1C)C(=O)c1cc(C(F)(F)F)cc(C(F)(F)F)c1` [Example 38, 3,5-Bis(trifluoromethyl)-N-[(6-chloro-1,2-dihydro-2-methyl-1-oxo-4-phenylisoquinolin-3-yl)methyl]-N-methylbenzamide], for which the IC50 in experiment [4] was found to be 72 nM.
